Results: patent publication EP0309424A2, “New amidino derivatives” (ISTITUTO DE ANGELI S.p.A., priority 1987, dated 1989)
Counter-ions that a name gives are not always drawn.

Target: T1, muscarinic receptors of the cerebral cortex (Rattus norvegicus, UniProt P08482)
T1 construct: displacement of ^3H-pirenzepine from cerebral cortex homogenate; from tissue; host or cells: rat cerebral cortex homogenate
T1 sequence (P08482 1-460): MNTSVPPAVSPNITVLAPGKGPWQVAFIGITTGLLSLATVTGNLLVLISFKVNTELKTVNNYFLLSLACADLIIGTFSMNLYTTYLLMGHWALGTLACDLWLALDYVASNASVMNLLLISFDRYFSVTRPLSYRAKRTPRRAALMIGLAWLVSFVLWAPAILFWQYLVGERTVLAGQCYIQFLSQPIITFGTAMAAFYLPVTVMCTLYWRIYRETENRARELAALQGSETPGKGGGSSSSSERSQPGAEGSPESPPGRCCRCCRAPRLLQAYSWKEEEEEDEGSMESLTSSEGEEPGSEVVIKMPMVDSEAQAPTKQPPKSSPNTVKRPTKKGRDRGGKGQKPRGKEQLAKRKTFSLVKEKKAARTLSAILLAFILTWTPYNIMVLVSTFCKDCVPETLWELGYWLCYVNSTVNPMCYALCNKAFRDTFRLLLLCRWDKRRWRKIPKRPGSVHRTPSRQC
Assay: Antimuscarinic activity (in vitro binding studies): displacement of 3H-pirenzepine from cerebral cortex homogenate
Design: species or system male CD-COOBBS rats
Details: not given
Description: Antimuscarinic activity was examined by studying the displacement of ^3H-pirenzepine from cerebral cortex homogenate according to the procedure reported below: • The cerebral cortex donors were male CD-COOBBS rats, 220-250 g body weight. The homogenization process was carried out in a Potter-Evelhjem apparatus in the presence of Na^+/Mg^++ HEPES buffer; pH 7.4 (100 mM NaCI, 10 mM MgC12, 20 mM HEPES), by filtering the suspension through two layers of cheesecloth. Binding curves for the under study compounds were derived indirectly from competition experiments against 0.5 nM ^3H-pirenzepine labelling the muscarinic receptors of the cerebral cortex. 1 ml of the homogenate was incubated for 45 min at 30° C in the presence of a marker ligand and different concentrations of the cold ligand, conditions under which equilibrium was reached as determined by appropriate association experiments. The incubation was terminated by centrifugation (12,000 rpm for 3 min) at room temperature using an Eppendorf microcentrifuge. The resultant pellet was washed twice with 1.5 ml saline to remove the free radioactivity and it was allowed to drain for some hours. The tips of the tubes containing the pellet were cut off and 200 µl of tissue solubilizer (Lumasolve, Lumac) were added and left to stand overnight. Radioactivity was then counted after addition of 4 ml of liquid scintillation mixture (Dimilume/Toluene 1:10 v:v, Packard)
Non-specific binding avaraged less than 30%. KD values (dissociation constants) were obtained by non-linear regression analysis on the basis of a one binding site model with TOPFIT-pharmacokinetic programme package (G. HEINZEL, "Pharmacokinetics during drug development: data analysis and evaluation techniques" Eds. G. BOLZER and J.M. VAN ROSSUM; p. 207, G. Fisher, New York, 1982) after correction for the radioligand occupancy shift according to the equation: Ko = ICso/1 + *C/*KD, where "C and *KD represent the concentration and the dissociation constant of the radioligand used, respectively.

Structure (SMILES) | Ki [µM]
CC(=N)N1C2CC(OC(=O)C(CO)c3ccccc3)CC1C1OC12 (single isomer, unassigned; (-)) [Compound 65, (-)-N-iminoethyl-norscopolamine] | 0.002
CC(=N)N1C2CCC1CC(OC(=O)C(CO)c1ccccc1)C2 (racemic) [Compound 64, N-iminoethyl-noratropine] | 0.0034
N=C(N)N1C2CCC1CC(OC(=O)C(CO)c1ccccc1)C2 (racemic) [Compound 1, N-guanyl-Noratropine] | 0.007

Same assay, conditions: competition against 0.5 nM 3H-pirenzepine, rat cerebral cortex homogenate, 45 min at 30° C, corrected for radioligand occupancy shift; read-out: Dissociation constants (KD) for 3H-pirenzepine binding

Structure (SMILES) | Ki [µM]
N=C(N)N1CCC(CC(O)(c2ccccc2)c2ccccc2)CC1 [Compound 24, 2-[(N-guanyl-piperidin-4-yl)]-1,1-diphenyl-ethanol] | 0.038
N=C(N)N1CCC(OC(=O)C(c2ccccc2)c2ccccc2)CC1 [Compound 14, Benzeneacetic acid,a-phenyl-,1-guanyl-4-piperidinyl ester] | 0.015
CN=CN1CCC(=C(c2ccccc2)c2ccccc2)CC1 [Compound 28, Piperidine,4-(diphenylmethylene)-,1-[N-methyl-(iminomethyl)]] | 0.032

The remaining lines, values ahead:

Ki [µM] | Structure (SMILES)
0.03 | CC(=N)N1CCN(CC(O)(c2ccccc2)C2CCCCC2)CC1 (stereo not shown) [Compound 62, N-(iminoethyl)-N'-[(2-hydroxy-2-phenyl-2-cyclohexyl)ethyl]-piperazine]
0.017 | N=C(N)N1CCN(CC(O)(c2ccccc2)C2CCCCC2)CC1 (stereo not shown) [Compound 4, N-guanyl-N'-[(2-phenyl-2-cyclohexyl-2-hydroxy)-ethyl]-piperazine]
0.012 | N=CN1CCN(CC(O)(c2ccccc2)C2CCCCC2)CC1 (stereo not shown) [Compound 35, N-iminomethyl-N'-[(2-hydroxy-2-phenyl-2-cydohexyl)-ethyl]-piperazine]
0.0044 | N=CN1CCC(OC(=O)C(c2ccccc2)c2ccccc2)CC1 [Compound 34, Benzeneacetic acid,α-phenyl,1-(iminomethyl)-4-piperidinyl ester, hydrochloride]
